Data taken from PMC12332266 (Frontiers in Pharmacology, 2025).
Like-named read-outs stand apart in the source and are kept apart here.

Columns and labels:
[1] = system: hiPSC-CM (iCell Cardiomyocytes^2); experiment: RTCA CardioECR assessment (impedance and electrophysiology parameters)
Protocol: (§1) Culture media change was performed every 2 days.
After seeding on fibronectin-coated xCELLigence ePlates (Agilent Technologies, Inc. Santa Clara, CA, USA), iCell^2 CM were monitored continuously through impedance electrodes. The following impedance parameters were measured: Cell Index (CI, measure of cell “health” and monolayer integrity), beating rate (BR) and amplitude (CI Amplitude, magnitude of contraction). Electrophysiology-like parameters (Field Potential Duration (FPD), considered as a surrogate for QT in in vivo studies, and Spike Amplitude (SA), depolarization induced by Na^+ channel opening) were measured starting from day 4–6, following the monolayer formation. […] All RTCA CardioECR data were double normalized (DMSO control and the baseline) with no further statistical group comparison for the normalized parameters. The variability of the data within the treatment groups was assessed by standard deviation.

[2] = system: hiPSC-CM (iCell Cardiomyocytes^2); experiment: Intracellular miRNA expression by RT-qPCR in hiPSC-CM pellets after 72-hour treatment
Protocol: as §1
Total RNA was extracted from hiPSC-CM using the miRNeasy 96 Kit (Qiagen, Hilden, Germany) following the manufacturer’s recommendations. After the extraction, RNA purity was assessed by NanoDrop™ 8000 Spectrophotometer (Thermo Fisher Scientific Inc.). 5–10 ng/μL of RNA per sample were reverse transcribed and pre-amplified by using the TaqMan™ Advanced miRNA cDNA Synthesis Kit (Thermo Fisher Scientific Inc.). The synthesized cDNA was used for RT-qPCR with selected TaqMan™ assays (Thermo Fischer Scientific Inc.). RT-qPCR was carried out following the Applied Biosciences TaqMan miRNA expression assay protocol on a ViiA7 instrument (Thermo Fisher Scientific, Inc.). […] Therefore, to maximize the number of drugs and concentrations, explored in the same study, we pooled the triplicates for intracellular profiling of miRNAs. Therefore, no statistical analysis was performed on the data of miRNA profiling in the pellets of hiPSC-CM.
Following RTCA CardioECR assessment, hiPSC-CM cell pellets were collected, and total RNA was extracted and purified to investigate miRNAs upregulation by RT-qPCR. […] For the initial assessment of intracellular miRNAs in 12 different treatments, encompassing various drug classes, we used a panel of 17 miRNAs, which we selected from the publicly available data focusing mainly on in vitro models and structural cardiotoxicants (Supplementary Table S2).

[3] = ref extensive literature search, cited from earlier work

RTCA, MEC (CI) ([1]; hiPSC-CM, change ≥20%, Table 2) | Beating Rate MEC ([1]; human, 72 h) [µM] | Beating rate (BR) MEC ([1]; human, 72 h) [µM] | Contractility Amplitude MEC ([1]; human, 72 h) [µM] | Field Potential Duration MEC ([1]; human, 72 h) [µM] | RTCA, MEC (BR) ([1]; human, 72 h) | Spike Amplitude (SA) MEC ([1]; human, 72 h) [µM] | miRNAs hiPSC-CM pellet, MEC overall [2] [µM] | SMILES | miRNAs upregulated at the MEC overall (hiPSC-CM pellet) [2] | Cmax total ([3]; Supplementary Table 1) [µM] | Cmax total ([3]; Table 1) [µM] | intracellular miRNA upregulation in hiPSC-CM, in words ([2]; human, 72 h)
0.3 µM (CI, BR (Q)) | 0.3 | 0.3 | 0.3 | 0.3 | 0.3 µM (CI, BR (Q)) | 0.3 | 0.3 | COc1cccc2c1C(=O)c1c(O)c3c(c(O)c1C2=O)C[C@@](O)(C(=O)CO)C[C@@H]3O[C@H]1C[C@H](N)[C@@H](O)[C@H](C)O1 [Epirubicin] | miR-7-5p, miR-29a-5p, miR-126-3p, miR-146b-5p, miR-182-5p, miR-184, miR-185-3p, miR-187-3p, miR-208b-3p, miR-365a-5p | 16.6 | 16.60 | –
– | 0.77 | 0.77 | – | – | 0.77 µM (BR) | 0.23 | 0.23 | C#Cc1cccc(Nc2ncnc3cc(OCCOC)c(OCCOC)cc23)c1 [Erlotinib] | miR-1-3p, miR-21-5p, miR-34a-5p, miR-208b-3p | 3.15 to 4.8 | 3.15 to 4.80 | upregulation of three miRNAs (hsa-miR-146b-5p, hsa-miR-182-5p, hsa-miR-365a-5p)
